Type in all cases: biochemical
Assay [1] relates to Factor IX deficient plasma. The experiment in a line: relative coagulant activity of factor IX proteins (zymogens). The note with it: for relative coagulant activity: factor IX proteins before activation, IXNP = 100%. The text has this:
The following reagents were used. Benzoyl-Ile-Glu-Gly-Arg-p-nitroanilide (SEQ ID NO: 17) (S-2222) was purchased from Helena Laboratories. Dansyl-Glu-Gly-Arg-chloromethyl ketone (DEGR-ck) was obtained from Calbiochem. Phosphatidylcholine, phosphatidylserine, recombinant hirudin, and fatty acid free bovine serum albumin (BSA) were obtained from Sigma Chemical Co. Factor IX and factor VIII deficient plasmas were purchased from George King Biomedicals and aPTT reagent was obtained from Diagnostica Stago. Normal human plasma factor IX (IXNP) and factor X were isolated as described in Bajaj and Birktoft, 1993, Methods Enzymol. 222, 96–128, and factor Xa was prepared as described in Bajaj et al., 1981, Prep. Biochem. 11, 397–412. Purified human factor XIa, protein C, activated protein C, and α-thrombin (IIa) were purchased from Enzyme Research Laboratories (South Bend, Ind.). Recombinant human tissue factor of aa 1–243 containing the transmembrane domain was generously provided by Genentech Inc. (South San Francisco, Calif.) and reconstituted as described in Sabharwal et al., 1995, J. Biol. Chem. 270, 15523–15530. Phosphatidylcholine-phosphatidylserine vesicles (75% phosphatidylcholine, 25% phosphatidylserine) were prepared by the method of Husten et al., 1987, J. Biol. Chem. 262, 12953–12966 as outlined in Sabharwal et al (Id.). Recombinant human factor VIIa was a generous gift of Novo-Nordisk (Copenhagen). Purified human factor VIII was obtained from Dr. Leon Hoyer (American Red Cross, Rockville, Md.). The preparation was free of all other coagulation factors and contained human albumin as a stabilizing agent. Purification of a mouse monoclonal antibody (mAb) that inhibits the interaction of factor IXa with factor VIIIa was as described in Bajaj et al., 1985, J. Biol. Chem. 260:11574–11580. […]

Assay [2] deals with T1, factor X (Homo sapiens, UniProt P00742). In words: factor X activation in complete intrinsic Tenase system (IXa, Ca2+, phospholipid, VIIIa). More on the design: Normal human plasma factor IX (IXNP) and factor X were isolated as described in Bajaj and Birktoft; from tissue; host or cells: human plasma (factor X); factor VIII obtained from Dr. Leon Hoyer, American Red Cross. The note with it: VIIIa increased from 70 pM to 14 nM, phospholipid present. As to the method:
(§1) The ability of each activated mutant to activate factor X in the presence and absence of phospholipid and factor VIIIa was determined as follows. The activation was carried out at 37° C. in a 50 μl reaction volume, in TBS/BSA pH 7.4, for various time periods. At the end of the incubation time period, each reaction mixture received 1 μl of 0.5 M EDTA to stop further generation of factor Xa. A 40 μL aliquot was then added to 0.1 ml quartz cuvette containing S-2222 in 75 μL of TBS/BSA, pH 7.4. The final concentration of S-2222 was 100 μM. The p-nitroaniline release was measured continuously (ΔA405/min) for up to 20 min (Sabharwal et al., 1995 supra; Sabharwal et al., 1997, supra). Factor Xa generated was calculated from a standard curve constructed using factor Xa prepared from insolubilized Russell's viper venom.
(§2) Factor X activation measurements were made under four experimental regimes. In one, Ca^2+ and phospholipid were present. In this system activation was carried out for 5–15 minutes and the concentration of each IXa protein was 20 nM, phospholipid was 25 μM, and factor X was 100 nM. In the second regime, Ca^2+, phospholipid and factor VIIIa were present. […] In the third regime, only Ca^2+ was present. Here, activation was carried out for 2–20 min and concentration of each IXa protein was 400 nM and factor X was 1 μM. Finally, in the fourth regime, Ca^2+ and VIIIa were present. Here, activation was carried out for 15–120 sec and the concentration of each IXa protein was 2 μM, VIIIa was 14 nM, and factor X was 400 nM.
(§3) In all of the above factor X activation experiments, the incubation times chosen were those in which the factor Xa generated was always less than 10 nM. This precautionary measure was taken to prevent activation of factor X by the generated factor Xa (see, e.g., Link. and Castellino, 1982, Arch Biochem. Biophys. 215, 215–221). Further, in those incubation mixtures which contained […], control experiments were also performed in which factor VIIIa was omitted. […] In the presence of factor VIIIa, 10 μM phospholipid was used based upon previous observations (Mathur et al., 1997, supra; van Dieijen et al., 1981, J. Biol. Chem. 256, 3433–3442). The concentrations of factor X selected for each set of reaction conditions are those which are below or at the Km values (van Dieijen et al., supra; Fay and Koshibu, 1998, J Biol. Chem. 273, 19049–19054). In this region of the Michaelis-Menton curve, the rate of formation of factor Xa is proportional to the substrate factor X and therefore to the affinity of the factor IXa enzyme for factor X.
Next, the activation of factor X in a complete intrinsic Tenase system (IXa, Ca^2+, phospholipid, VIIIa) was studied.

In assay [3] the test system is Factor IX deficient plasma. In words: coagulant activity of XIa-activated IXa proteins.
In assay [4] the target is T1, factor X. The experiment in a line: factor X activation by IXa proteins, Ca2+ and VIIIa, no phospholipid. Also noted: Normal human plasma factor IX (IXNP) and factor X were isolated as described in Bajaj and Birktoft; from tissue; host or cells: human plasma (factor X); factor VIII obtained from Dr. Leon Hoyer, American Red Cross. The note with it: 14 nM VIIIa, 400 nM factor X. The protocol: as §1, §2, §3

In assay [5] the target is T2, factor VIIIa (Homo sapiens, UniProt P00451).
T2 construct: purchased Dr. Leon Hoyer (American Red Cross, Rockville, Md.)
T2 sequence (P00451 20-759 limits assumed): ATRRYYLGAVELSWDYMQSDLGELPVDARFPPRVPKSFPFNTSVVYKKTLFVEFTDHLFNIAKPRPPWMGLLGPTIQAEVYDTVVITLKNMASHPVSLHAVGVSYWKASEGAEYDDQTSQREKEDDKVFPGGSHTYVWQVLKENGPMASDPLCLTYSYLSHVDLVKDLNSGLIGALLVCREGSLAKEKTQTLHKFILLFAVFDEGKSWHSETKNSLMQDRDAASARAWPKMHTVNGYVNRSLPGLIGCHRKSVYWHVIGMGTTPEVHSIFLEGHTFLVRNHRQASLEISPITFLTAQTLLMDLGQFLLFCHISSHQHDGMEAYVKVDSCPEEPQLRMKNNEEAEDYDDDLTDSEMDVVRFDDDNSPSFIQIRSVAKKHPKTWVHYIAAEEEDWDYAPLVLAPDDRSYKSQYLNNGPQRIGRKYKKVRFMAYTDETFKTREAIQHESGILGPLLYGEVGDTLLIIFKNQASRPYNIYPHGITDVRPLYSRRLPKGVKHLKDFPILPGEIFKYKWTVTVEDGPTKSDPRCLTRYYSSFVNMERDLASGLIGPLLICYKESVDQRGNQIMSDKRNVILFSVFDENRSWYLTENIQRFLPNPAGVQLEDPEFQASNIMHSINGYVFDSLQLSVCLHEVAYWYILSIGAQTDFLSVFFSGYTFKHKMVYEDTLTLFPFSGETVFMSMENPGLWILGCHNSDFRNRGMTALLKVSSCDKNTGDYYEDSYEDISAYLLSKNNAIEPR
T2 sequence (P00451 1668-2351 limits assumed): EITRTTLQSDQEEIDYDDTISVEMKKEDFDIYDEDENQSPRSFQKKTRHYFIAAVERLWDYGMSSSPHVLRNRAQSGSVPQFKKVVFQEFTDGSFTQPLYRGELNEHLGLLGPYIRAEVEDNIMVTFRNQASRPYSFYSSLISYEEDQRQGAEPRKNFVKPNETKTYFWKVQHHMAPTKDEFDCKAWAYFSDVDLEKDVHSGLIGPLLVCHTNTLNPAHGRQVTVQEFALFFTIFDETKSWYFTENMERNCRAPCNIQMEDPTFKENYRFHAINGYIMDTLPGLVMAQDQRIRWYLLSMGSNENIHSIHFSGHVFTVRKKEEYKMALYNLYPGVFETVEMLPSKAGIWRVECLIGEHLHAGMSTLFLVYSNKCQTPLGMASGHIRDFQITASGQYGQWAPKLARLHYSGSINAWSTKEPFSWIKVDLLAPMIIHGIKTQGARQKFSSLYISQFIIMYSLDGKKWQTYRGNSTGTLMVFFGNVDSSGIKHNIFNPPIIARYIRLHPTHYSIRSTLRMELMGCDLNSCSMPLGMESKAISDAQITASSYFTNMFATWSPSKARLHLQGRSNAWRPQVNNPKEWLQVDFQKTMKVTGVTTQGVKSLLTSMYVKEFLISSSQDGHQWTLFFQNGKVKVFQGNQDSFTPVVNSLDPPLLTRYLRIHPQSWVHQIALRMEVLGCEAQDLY
In words: inhibition of Xa generation by active site-blocked (DEGR) IXa proteins, presence of phospholipid (Kd,app for VIIIa). The note with it: presence of phospholipid. The protocol:
(§4) Apparent Kds of factor VIIIa binding to various active site-blocked factor IXa proteins were determined from inhibition experiments as detailed in Mathur et al., 1997, supra. […] Reactions were carried out for 2 min and the rates of factor X activation were measured as outlined above.
(§5) Various DEGR-ck-inhibited factor IXa proteins were prepared for these experiments as follows. IXNP, IXWT, and each mutant factor IX at 200 μg/ml was activated by factor XIa (2 μg/ml) for 90 min. in TBS, pH 7.4 (0.05 M Tris, 0.15 M NaCl, pH 7.4) containing 5 mM Ca^2+.
(§6) Enzymol. 74, 481–508 given below:
(§7) [formula] where y is the rate of Xa formation in the presence of a given concentration of DEGR-IXa protein represented by x, a is the maximum rate of Xa formation in the absence of DEGR-IXa, and s is the slope factor. Each point was weighted equally and the data were fitted to Equation 1 using the nonlinear regression analysis program obtained from Erithacus Software (GraFit). […] To obtain the Kd,app values for the interaction of DEGR-IXa proteins with factor VIIIa, the following equation was used, as described by Cheng and Prusoff, 1973, Biochem. Pharmacol. 22, 3099–3108 and further discussed by Craig, 1993, Trends Pharmacol. Sci. 6, 68–71.

Assay [6] deals with T2, factor VIIIa. The experiment in a line: inhibition of Xa generation by active site-blocked (DEGR) IXa proteins, absence of phospholipid (Kd,app for VIIIa). The note with it: absence of phospholipid. As to the method: as §4, §5, §6, §7

T1 sequence (P00742 183-488 limits assumed, one chain of several): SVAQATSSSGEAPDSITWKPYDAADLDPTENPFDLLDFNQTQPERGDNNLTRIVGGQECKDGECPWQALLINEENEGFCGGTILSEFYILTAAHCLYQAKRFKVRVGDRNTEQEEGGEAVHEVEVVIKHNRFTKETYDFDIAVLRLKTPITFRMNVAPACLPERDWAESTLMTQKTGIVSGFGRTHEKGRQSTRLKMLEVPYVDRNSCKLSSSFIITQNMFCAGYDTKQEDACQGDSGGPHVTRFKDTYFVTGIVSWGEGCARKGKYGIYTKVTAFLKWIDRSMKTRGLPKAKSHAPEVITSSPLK
T1 sequence (P00742 41-179 limits assumed, one chain of several): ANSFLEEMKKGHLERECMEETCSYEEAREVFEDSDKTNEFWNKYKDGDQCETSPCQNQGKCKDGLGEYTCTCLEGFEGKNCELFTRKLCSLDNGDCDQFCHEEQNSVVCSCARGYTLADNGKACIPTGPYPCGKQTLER

Take “IXD332Y: recombinant factor IX point mutant D332Y”: in assay [1], the relative coagulant activity is reported as roughly 2%. For “IXL337I: recombinant factor IX point mutant L337I”, the relative coagulant activity in assay [1] is roughly 1%. The same measure, in the same setting: the result for “IXL3301: recombinant factor IX point mutant L330I in helix-330 of protease domain” reads roughly 8%.

The substance IXNP: Normal human plasma factor IX yielded a relative coagulant activity in assay [1] of 100%. In addition, in assay [1] (plasma factor IX), the “coagulant activity (specific)” value was found to be 180±10 units/mg.

“IXR333L: recombinant factor IX point mutant R333L” came in with a relative coagulant activity in assay [1] of 0.3%.

In turn, “IXR333Q: recombinant factor IX point mutant R333Q” came in with a relative coagulant activity in assay [1] of roughly 0.5%.

Substance “IXR338Q: recombinant factor IX point mutant R338Q” registered a relative coagulant activity in assay [1] of roughly 65%.

“IXT335A: recombinant factor IX point mutant T335A” had a relative coagulant activity in assay [1] of roughly 40%.

Consider “IXWT: recombinant wild-type factor IX [reference compound]”, for which, in assay [1], the relative coagulant activity is recorded as roughly 90%. As for “IXaD332Y: activated factor IX mutant D332Y”, in the assay with factor X [2], the “rate of factor X activation at increased VIIIa” value (“rate … at increased VIIIa” below) is recorded as roughly 4.1 nM/min. In assay [3], the “coagulant activity as compared to IXaNP” value was roughly 2%. For “IXaL337I: activated factor IX mutant L337I” the same measures were roughly 3.2 nM/min and roughly 0.8%. For “IXaR333L: activated factor IX mutant R333L”, in that order: roughly 2.7 nM/min and roughly 0.4%.

With “IXaR333Q: activated factor IX mutant R333Q”, the “rate … at increased VIIIa” value with factor X [2] is roughly 2.4 nM/min. The “coagulant activity as compared to IXaNP” value in assay [3] is reported as roughly 0.6%. For “IXaR338Q: activated factor IX mutant R338Q”, the “X-activation rate, PL-minus system” value in the assay with factor X [4] was determined as 2.22 ± 0.15 nM/min. For the same substance, the “coagulant activity as compared to IXaNP” value in assay [3] is listed as roughly 80%. Turning to “IXaWT: factor XIa-activated recombinant wild-type factor IX [reference compound]”, the “coagulant activity as compared to IXaNP” value in assay [3] was roughly 95%. For the substance “IXahelixVII: activated factor IX chimera with helix 330–338 replaced by factor VII residues”, the “rate … at increased VIIIa” value with factor X [2] is listed as “not measurable”. In addition, in assay [3], the “coagulant activity as compared to IXaNP” value is given as “not measurable”. Regarding “protein C: Purified human protein C, control protein [reference compound]”, the “competition with IXa in binding to VIIIa / interaction with VIIIa” value with factor VIIIa [5] and in the assay with factor VIIIa [6] was “neither protein C nor DEGR-activated protein C competed with IXa in binding to VIIIa” each time.

The record behind these values is patent US7109170B2, “Region of factor IXa protease domain that interacts with factor VIIIa and methods therefor” (Saint Louis University, priority 1999, dated 2006).
